The compounds below were run against Human V1b receptor (Homo sapiens (Human), UniProt P47901) (assay: Binding Test for V1b Receptor ([3H]AVP, crude membrane preparation of 293FT cells)). Details: inhibition of [3H]AVP binding (0.4 to 1 nmol/L), room temperature, 60 minutes.
Protocol: Binding Test for V1b Receptor
Human V1b receptor was transiently expressed in 293FT cells (Invitrogen). The cells were collected and then homogenated in a 15 mmol/L tris-hydrochloric acid buffer (pH 7.4 and containing 2 mmol/L magnesium chloride, 0.3 mmol/L ethylenediaminetetracetic acid, and 1 mmol/L glycol ether diaminetetraacetic acid). The resulting homogenate was centrifuged at 50,000×g at 4° C. for 20 minutes. The precipitate was resuspended in a 75 mmol/L tris-hydrochloric acid buffer (pH 7.4 and containing 12.5 mmol/L magnesium chloride, 0.3 mmol/L ethylenediaminetetracetic acid, 1 mmol/L glycol ether diaminetetraacetic acid, and 250 mmol/L sucrose) to give a crude membrane preparation, which was stored at −80° C. until the binding test was initiated. In the binding test, the crude membrane preparation was diluted with a 50 mmol/L tris-hydrochloric acid buffer (pH 7.4 and containing 10 mmol/L magnesium chloride and 0.1% bovine serum albumin) and mixed with each test compound and [^3H]AVP (final concentration: 0.4 to 1 nmol/L), followed by incubation at room temperature for 60 minutes. The test compound was serially diluted with DMSO so that it would have final concentrations of 0.01 nmol/L to 1 μmol/L at the time of mixing. After the incubation, the mixture was suction filtered through a GF/C filter that was preliminarily impregnated with 0.3% polyethyleneimine. The GF/C filter was dried and after adding a scintillator, the residual radioactivity on the filter was measured using TopCount (PerkinElmer Inc.). The radioactivity in the presence of unlabeled AVP at […] was defined as 0%, and the radioactivity in the absence of unlabeled AVP was defined as 100%. A dose-response curve was plotted from radio activities in the presence of a test compound at various concentrations, and the 50% inhibitory concentration (IC50 value) of the test compound was calculated.

Sequence of Human V1b receptor (P47901 whole entry): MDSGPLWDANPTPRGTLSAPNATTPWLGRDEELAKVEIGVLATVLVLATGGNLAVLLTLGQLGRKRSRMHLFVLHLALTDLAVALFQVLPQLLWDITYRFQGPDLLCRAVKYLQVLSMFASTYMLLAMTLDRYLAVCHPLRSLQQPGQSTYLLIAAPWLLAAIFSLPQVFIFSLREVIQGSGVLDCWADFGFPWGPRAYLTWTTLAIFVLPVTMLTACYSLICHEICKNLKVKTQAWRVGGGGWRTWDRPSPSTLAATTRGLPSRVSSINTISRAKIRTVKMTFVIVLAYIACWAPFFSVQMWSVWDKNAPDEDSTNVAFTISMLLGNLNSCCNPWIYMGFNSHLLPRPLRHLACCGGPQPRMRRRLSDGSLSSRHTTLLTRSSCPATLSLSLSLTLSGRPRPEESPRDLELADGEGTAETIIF

Structure (SMILES) | IC50 [nM]
COc1cccc(-c2nc(-c3ccc(CC(C)N4C5CCC4COC5)cc3)nn2CC(=O)NC(C)C)c1 (stereo not shown) [Example B-20, 2-[5-(3-methoxyphenyl)-3-{4-[2-(3-oxa-8-azabicyclo[3.2.1]oct-8-yl)propyl]phenyl}-1H-1,2,4-triazol-1-yl]-N-(propan-2-yl)acetamide] | 0.43
COc1cc(-c2nc(-c3ccc(CCN4C5CCC4COC5)cc3)cn2CC(=O)NC(C)C)ccc1F [Example A-22, 2-[2-(4-fluoro-3-methoxyphenyl)-4-{4-[2-(3-oxa-8-azabicyclo[3.2.1]oct-8-yl)ethyl]phenyl}-1H-imidazol-1-yl]-N-(propan-2-yl)acetamide] | 2.6
CC(C)NC(=O)Cn1cc(C(=O)N(C)C2CCC(N3CCOCC3)CC2)nc1-c1cccc(Cl)c1 (stereo not shown) [Example A-48, 2-(3-chlorophenyl)-N-methyl-N-[4-(morpholin-4-yl)cyclohexyl]-1-[2-oxo-2-(propan-2-ylamino)ethyl]-1H-imidazole-4-carboxamide] | 100 to 1000
COc1cc(-n2c(CC(=O)NC(C)(C)C)nn(-c3ccc(CCN4C5CCC4COC5)cc3)c2=O)ccc1F [Example D-10, N-tert-butyl-2-[4-(4-fluoro-3-methoxyphenyl)-1-{4-[2-(3-oxa-8-azabicyclo[3.2.1]oct-8-yl)ethyl]phenyl}-5-oxo-4,5-dihydro-1H-1,2,4-triazol-3-yl]acetamide] | 7.1
COc1cc(-c2nc(-c3ccc(CCN4CC(C#N)C4)cc3)cn2CC(=O)NC(C)C)ccc1F [Example A-16, 2-[4-{4-[2-(3-cyanoazetidin-1-yl)ethyl]phenyl}-2-(4-fluoro-3-methoxyphenyl)-1H-imidazol-1-yl]-N-(propan-2-yl)acetamide] | 100 to 1000
CC(C)NC(=O)Cn1cc(N2CCN(CCN3CCOCC3)CC2=O)nc1-c1cccc(Cl)c1 [Example A-46, 2-[2-(3-chlorophenyl)-4-{4-[2-(morpholin-4-yl)ethyl]-2-oxopiperazin-1-yl}-1H-imidazol-1-yl]-N-(propan-2-yl)acetamide] | 100 to 1000
CC(C)(C)NC(=O)Cn1nc(-c2ccc(CCN3C4CCC3COC4)cn2)nc1-c1cccc(Cl)c1 [Example B-09, N-tert-butyl-2-[5-(3-chlorophenyl)-3-{5-[2-(3-oxa-8-azabicyclo[3.2.1]oct-8-yl)ethyl]pyridin-2-yl}-1H-1,2,4-triazol-1-yl]acetamide] | 2.2
COc1cc(-c2nc(-c3ccc(CCN4CCCC(OC)C4)cc3)cn2CC(=O)NC(C)C)ccc1F (stereo not shown) [Example A-18, 2-[2-(4-fluoro-3-methoxyphenyl)-4-{4-[2-(3-methoxypiperidin-1-yl)ethyl]phenyl}-1H-imidazol-1-yl]-N-(propan-2-yl)acetamide] | 19
CC(C)NC(=O)Cn1cc(-c2ccc(CCN3CCC(O)CC3)cc2)nc1-c1cccc(Cl)c1 [Example A-04, 2-[2-(3-chlorophenyl)-4-{4-[2-(4-hydroxypiperidin-1-yl)ethyl]phenyl}-1H-imidazol-1-yl]-N-(propan-2-yl)acetamide] | 10 to 100
CC(C)NC(=O)Cn1cc(-n2ccc(CCN3CCOCC3)cc2=O)nc1-c1cccc(Cl)c1 [Example A-45, 2-[2-(3-chlorophenyl)-4-{4-[2-(morpholin-4-yl)ethyl]-2-oxopyridin-1(2H)-yl}-1H-imidazol-1-yl]-N-(propan-2-yl)acetamide] | 34
CC(C)NC(=O)Cn1cc(-c2ccc(CCN3CCOCC3)cc2)nc1-c1ccc(F)c(Cl)c1 [Example A-39, 2-[2-(3-chloro-4-fluorophenyl)-4-{4-[2-(morpholin-4-yl)ethyl]phenyl}-1H-imidazol-1-yl]-N-(propan-2-yl)acetamide] | 1

Further lines, results first:

IC50 [nM] | Structure (SMILES)
17 | CC(C)NC(=O)Cn1nc(-c2ccc(CCN3CCCCC3)cc2)cc1-c1cccc(Cl)c1 [Example C-06, 2-[5-(3-chlorophenyl)-3-{4-[2-(piperidin-1-yl)ethyl]phenyl}-1H-pyrazol-1-yl]-N-(propan-2-yl)acetamide]
16 | CC(C)NC(=O)Cc1nn(-c2ccc(CCN3CCCCC3)cc2)c(=O)n1-c1ccc(F)c(Cl)c1 [Example D-44, 2-[4-(3-chloro-4-fluorophenyl)-5-oxo-1-{4-[2-(piperidin-1-yl)ethyl]phenyl}-4,5-dihydro-1H-1,2,4-triazol-3-yl]-N-(propan-2-yl)acetamide]
10 to 100 | CC(C)NC(=O)Cc1nc(-c2ccc(CCN3CCCCC3)cc2)oc1-c1cccc(Cl)c1 [Example C-08, 2-[5-(3-chlorophenyl)-2-{4-[2-(piperidin-1-yl)ethyl]phenyl}-1,3-oxazol-4-yl]-N-(propan-2-yl)acetamide]
10 to 100 | Cc1c(-c2cccc(Cl)c2)n(CC(=O)NC(C)C)c(=O)n1-c1ccc(CCN2CCOCC2)cc1 [Example C-20, 2-[5-(3-chlorophenyl)-4-methyl-3-{4-[2-(morpholin-4-yl)ethyl]phenyl}-2-oxo-2,3-dihydro-1H-imidazol-1-yl]-N-(propan-2-yl)acetamide]
2.5 | COc1cc(-n2c(CC(=O)NC(C)(C)C)nn(-c3ccc(CCN4CCOCC4)cc3)c2=O)ccc1F [Example D-05, N-tert-butyl-2-[4-(4-fluoro-3-methoxyphenyl)-1-{4-[2-(morpholin-4-yl)ethyl]phenyl}-5-oxo-4,5-dihydro-1H-1,2,4-triazol-3-yl]acetamide]
10 to 100 | CC(C)NC(=O)Cc1nn(-c2ccc(CCN3CCC(F)(F)CC3)cc2)c(=O)n1-c1cccc(Cl)c1 [Example D-58, 2-[4-(3-chlorophenyl)-1-{4-[2-(4,4-difluoropiperidin-1-yl)ethyl]phenyl}-5-oxo-4,5-dihydro-1H-1,2,4-triazol-3-yl]-N-(propan-2-yl)acetamide]
100 to 1000 | COc1cccc(-c2nc(-c3ccc(CCN4CCC(NC(C)=O)CC4)cc3)nn2CC(=O)NC(C)C)c1 [Example B-35, 2-[3-(4-{2-[4-(acetylamino)piperidin-1-yl]ethyl}phenyl)-5-(3-methoxyphenyl)-1H-1,2,4-triazol-1-yl]-N-(propan-2-yl)acetamide]
10 to 100 | CC(C)NC(=O)Cc1nn(-c2ccc(CCN3CCSCC3)cc2)c(=O)n1-c1cccc(Cl)c1 [Example D-48, 2-[4-(3-chlorophenyl)-5-oxo-1-{4-[2-(thiomorpholin-4-yl)ethyl]phenyl}-4,5-dihydro-1H-1,2,4-triazol-3-yl]-N-(propan-2-yl)acetamide]
4.6 | COc1cccc(-n2c(CC(=O)NC(C)(C)C)nn(-c3ccc(CCN4CCOCC4)cc3)c2=O)c1 [Example D-06, N-tert-butyl-2-[4-(3-methoxyphenyl)-1-{4-[2-(morpholin-4-yl)ethyl]phenyl}-5-oxo-4,5-dihydro-1H-1,2,4-triazol-3-yl]acetamide]
10 to 100 | CC(C)NC(=O)Cc1nn(-c2ccc(CCN3CCCC3)cc2)c(=O)n1-c1cccc(Cl)c1 [Example D-45, 2-[4-(3-chlorophenyl)-5-oxo-1-{4-[2-(pyrrolidin-1-yl)ethyl]phenyl}-4,5-dihydro-1H-1,2,4-triazol-3-yl]-N-(propan-2-yl)acetamide]
10 to 100 | CC(C)NC(=O)Cc1nn(-c2ccc(CCN3CC4(COC4)C3)cc2)c(=O)n1-c1cccc(Cl)c1 [Example D-61, 2-[4-(3-chlorophenyl)-1-{4-[2-(2-oxa-6-azaspiro[3.3]hept-6-yl)ethyl]phenyl}-5-oxo-4,5-dihydro-1H-1,2,4-triazol-3-yl]-N-(propan-2-yl)acetamide]

Reference: patent publication US9522914B2, “Azole derivative” (TAISHO PHARMACEUTICAL CO., LTD, priority 2011, dated 2016)
